From patent US6780984B2, “Method for prognosing cancer and the proteins involved” (Northwestern University, priority 2000, dated 2004)

Legend:
PC3 cells [1] = assay: Apoptosis induction by GFP fusion constructs transfected into PC3 cells; format: cell-based, human; settings: for role of domain in apoptosis induction: domain mapping / deletion mutagenesis, GFP fusions; for cells expressing the GFP fusion protein: 10 days in medium including 500 μg/ml geneticin (G418)
Description: (§1) FIGS. 16a-16c show the apoptosis induction by TRAITS activation. […] The GFP-TRAITS-ER protein is localized primarily in cytoplasm in the absence of OHT, as visualized under green fluorescent microscope. The fusion protein was translocated into nuclei 24 hours after treatment of the cells with 300 nM OHT and then condensed in the fragmented nuclei 48 hours after the OHT treatment. The condensed and fragmented nuclei of the OHT-treated PC3 cells were then visualized by Hoechst staining. […] The PC3 cells were cultured in the absence or presence of 300 nM OHT for 72 hours prior to FACS analysis. The figure represents one of the 3 different experiments.
(§2) Vector constructions and mutagenesis: The cDNAs of rat and human TRAITS were cloned into pEGFP C1, pEGFP N3, PM and pIRES2-EGFP(Clontech) by PCR. Deletion mutagenesis of TRAITS were generated by PCR and cloned into above first three vectors. The plasmids containing ER™ domain were kindly provided by G. Evan (UCSF, San Francisco). ER™ domain was cut with BamHI/EcoRI and recloned into pEGFP-TRAITS to generate a tripartite fusion protein. All constructions were verified by sequencing and transfected using Lipofectamine (Gibco), Super Fect reagent (Qiagen) or Fugene 6 (Roche). In stable transfection, 500 μg/ml geneticin (G418) was used for selection of positive clones.
Genomic structure and mutagenesis of TRAITS: TRAITS is composed of six exons (FIG. 18) which in humans encode respectively, 35 amino acid residues, 32 amino acid residues, 46 amino acid residues, 48 amino acid residues, 85 amino acid residues, and 14 amino acid residues (see FIG. 14a for exon junctions). In an effort to determine the role of individual domains, domain mapping was performed by fusing nucleic acids encoding GFP to nucleic acids encoding fragments of the TRAITS in pEGFPN3 vectors. The vectors was then used for transient and stable transfection of PC3 cells. The ability of the various constructs to induce apoptosis was determined.

[2] = test system: DNA sequence ACTTTA (T-box); assay: Electrophoretic mobility shift assay (EMSA); format: binding; settings: competed by cold T-wt but not by cold T-mut
Description: (§3) A non-specific complex (*) in the presence of GST-TRAITS was also formed in the presence of GST only. Labeled free DNA (F) was also indicated. […] NIH3T3 cells were transiently transfected with empty vector (PM) or vectors expressing the full-length rat TRAITS (residues 1-262 of SEQ ID NO:14), its N-terminal (residues 1-113 of SEQ ID NO:14), or its C-terminal (residues 114-262 of SEQ ID NO:14) plus pG5CAT reporter and pSV-β-gal for normalization. Assays were performed after 24 hours of transfection. The fold activation of CAT reporter is shown with S.E.M. Assays were performed in triplicate in two separate experiments.
Two oligonucleotides: T-wt: (5′-[…] GAAGCTTACGTCGCG-3′ SEQ ID NO:33) and T-mut: (5′-[…] CGAAGCTTACGTCGCG-3′ SEQ ID NO:34) were synthesized and amplified by PCR. T4 polynucleotide kinase (Promega) was used to label T-wt & T-mut by [γ-^32P] ATP (NEN). Recombinant GST-TRAITS fusion protein was incubated with 500 μg poly [dI-dC] and EMSA was performed according to the protocol provided by Gel Shift Assay System (Promega).

PC3 cells [3] = assay: Soft agar assay (anchorage-independent growth); format: cell-based, human; settings: stable overexpression in PC3 sublines
Description: FIGS. 4A-4D show the effect of calreticulin overexpression on colony formation of PC3 cells in a soft agar assay, PC3 (FIG. 4A), Mock (FIG. 4B), Crt 35 (FIG. 4C) and Crt 59 (FIG. 4). The soft agar assay was conducted in 6-well plates. The bottom agar is 2 ml 0.6% noble agar containing 1×RPMI 1640 medium supplemented with 10% fetal bovine serum (FBS). After the preparation of bottom agar, 1 ml of 0.3% top agar containing 5,000 cells and 1×RPMI 1640 medium supplemented with 10% FBS was added to form the top layer. The assay for each PC3 subline was carried out in duplicate and was repeated at least 3 times.
Colonies with greater than 125 um in diameter were counted in the quantification. Error bars represent standard error means (SEM).
Soft agar assay: The soft agar assay was conducted in 6-well plates. The bottom agar is 2 ml 0.6% noble agar containing 1×RPMI 1640 medium supplemented with 10% FBS. After the preparation of bottom agar, 1 ml of 0.3% top agar containing 5,000 cells and 1×RPMI 1640 medium supplemented with 10% FBS was added to form the top layer. The assay for each PC3 subline was carried out in duplicate and was repeated at least 3 times.

PC3 cells [4] = assay: Proliferation assay (cell numbers); format: cell-based, human; settings: ectopic expression, stably transfected PC3 sublines, culture in 6-well plates 4-5 days
Excerpt: The cell numbers of the parental PC3, empty pcDNA3.1 vector transfected PC3 sublines M1 and M2, and pcDNA3.1-TID-1 transfected PC3 sublines 27, 41, and 44 were counted after culture in 6-well plates for 4 days.
The cell numbers of the parental PC3, empty pCMV-Tag vector transfected PC3 sublines fM1 and fM2, and pCMV-Tag-fTID-1 transfected PC3 sublines f33, f17, and f23 were counted after culture in 6-well plates for 5 days. The proliferation and soft agar assays are described in Methods of Example 3 below.
Proliferation assay: Cells were plated onto 6-well plates in triplicate at 50,000 cells/well and cultured in RPMI 1640 medium supplemented with 10% fetal bovine serum (FBS), and 1% penicillin/streptomycin. The cells were trypsinized and counted each day afterwards for a five-day time course. The data were plotted using the GraphPad Prism software. The error bars represent SEM and they are difficult to see when SEM is very small. The cell proliferation assay was repeated 3 times and the results were very reproducible.

[5] = test system: CAT reporter gene expression; assay: Mammalian two-hybrid analysis, CAT reporter assay in NIH3T3 cells; format: cell-based
Description: as §3
CAT reporter assays: CAT activities were assayed 24 hours after transfection. NIH3T3 cells were grown in 6-well plates and transfected using Superfect (Qiagen). For transient transfection, 2 μg of PM constructions, 2 μg of pSVβ-gal (internal control) and 2 μg of pG5CAT (Clontech) were used per well. The level of CAT protein in cell extracts was determined using a CAT ELASA kit (Roche) according to the manufacturer. Protein concentration was measured using a Dc protein Assay kit (Bio-Rad). β-Galactosidase activity was measured by incubating with ONPG (o-nitrophenyl-β-D-galactopyranoside) solution. Data are reported as means ±S.E.M. of two separate experiments performed in triplicate.

[6] = test system: human prostate cancer cell lines (LNCaP, PC3, DU145 and TSU), rat Dunning prostate tumor cell lines, NIH3T3 and Hela; assay: Cell death after transient transfection of TRAITS expression vectors; format: cell-based
Excerpt: as §2
(§4) Cell death assays flow cytometry analysis: In flow cytometry analysis, cells cultured under the indicated conditions were harvested for staining with the TACS™ Annexin V-Biotin apoptosis detection kit (R & D systems). Propidium iodide was used for nuclei staining and Cy5 was conjugated to Annexin V-biotin. Apoptosis of Annexin V-positive cells was analyzed by FACS. Hoechst 33342 (Molecular Probes) was used for nuclear condensate staining and DNA fragmentation assay.
To further characterize the function of TRAITS, green fluorescent protein (GFP) was tagged to TRAITS at its N-terminal or C-terminal ends using pEGFP C1 and pEGFP N3 vector, respectively (Clontech). […]

ventral prostate = assay: C3(I)-TID-1 transgenic mice; format: in vivo, mouse; settings: transgenic vs non-transgenic littermates
Excerpt: To study the role of TRAITS protein in the prostate in vivo, an expression vector, C3 (I)-TID-1, was generated that expresses TRAITS under the control of the prostate C3(I) promoter [Zhang et al., Prostate, 32:16-26 (1997)]. The C3(I) promoter is androgen-dependent and active only in the ventral prostate and testis. Two transgenic mouse lines were identified by PCR amplification of the tail genomic DNA using primers specific for the TRAITS transgene. […] The C3(I)-TID-1 transgenic mice are fertile.

[7] = test system: AT6.1 xenograft prostate tumor; assay: AT6.1 prostatic xenograft tumor growth in nude mice; format: in vivo
Excerpt: The tamoxifen pellets were implanted at the time of AT6.1 cell injection. The error bars represent S.E.M. The tamoxifen inhibition of AT6.1 tumor growth was statistically significant (p<0.005) at every time point of tumor measurement. […] The loading of total RNA was visualized by methylene blue staining. FIG. 17c is the northern blot analysis of TRAITS expression in rat prostatic tissues and cancer cell lines. The loading of total RNA was visualized by methylene blue staining. […] Affinity purified anti-human TRAITS polyclonal antibody was used in immunostaining of radical prostatectomy specimens from 8 patients with advanced prostate cancer (Gleason-score 7 to −10). […] A typical TRAITS down-regulation was shown with 20× objective (left) and the boxed area shown at high magnification (middle). A parallel staining without primary antibody (right) was conducted as a control. Blue arrows with solid line point to benign epithelial cells whereas red arrows with broken line indicate cancerous cells.
Tumor growth: To determine their tumorigenicity, AT6.1 cells were injected subcutaneously (1×10^5 cells) into 4-6 week old male nu/nu mice (NCI). […] Tumor sizes were calculated using formula V=π×h (h^23a^2)/6, a=(L((+))W)/4 (Nature, 405:354-359) and the Student's t-test (two-tailed) was performed to analyze statistical significance using the SPSS 10.0 software (SPSS Inc., Chicago, Ill.).

LNCaP = assay: Stable transfection of LNCaP with CMV-fTID-1; format: cell-based, human; settings: two different experiments
Excerpt: The CMV-fTID-1 expression vector was also transfected into LNCaP, an androgen-responsive human prostate cancer cell line [Horoszewicz et al., Cancer Research 43:1809-18 (1983)], in two different experiments. […] The expression of the endogenous TID-1 gene was also not detected in the rat Dunning tumor cell lines (FIGS. 10A-10B) and various human prostate cancer cell lines including LNCaP, PC3, DU145, and TSU cells. […] Stable expression was observed using a CMV promoter-based expression vector. Clonal variations of stably transfected cells can be minimized by assaying multiple, (e.g., three) independent stably transfected sublines.

[8] = test system: PC3 cells transfected with the tripartite fusion protein; assay: FACS analysis of annexin V staining; format: cell-based, human; settings: 300 nM OHT for 72 hours, cells expressing GFP-TRAITS-ER
Description: as §1, §4

## exon III: TRAITS fragment corresponding to amino acids 68-113 of SEQ ID NO:18, fused to GFP
PC3 cells [1]
  role of domain in apoptosis induction: both necessary and sufficient to induce apoptosis

## GST-TRAITS: E. coli-purified GST-TRAITS fusion protein
[2]
  binding to labeled T-box containing DNA: forms a DNA-protein complex

## TID-1: novel testosterone regulated apoptosis inducer and tumor suppressor; transcription factor, SEQ ID NOs:14 (rat), 16 (mouse), 18 (human)
PC3 cells [3]
  colony formation in soft agar: inhibition of the size and number of colonies
PC3 cells [4]
  reduction in cell numbers: 2 fold
[5]; 24 hours after transfection
  transactivation of CAT reporter gene expression: more than 40 fold
[6]
  programmed cell death phenotype of transfected cells: efficiently induced chromatin condensation and cell death
Ventral prostate
  enhancement of epithelial cell number per unit area in the ventral prostate: 2-3 fold

## CC/C(=C(\c1ccccc1)c1ccc(OCCN(C)C)cc1)c1ccccc1 [tamoxifen]
[7]; tamoxifen administration, parallel experiments
  growth of xenograft tumors from parental or GFP-ER transfected AT6.1 cells: no detectable influence
[7]; tamoxifen pellets implanted at cell injection, p<0.005
  growth of xenograft tumors from AT6.1 sublines expressing GFP-TRAITS-ER: significantly inhibited

## EAF1: protein with sequence homology to TRAITS, SEQ ID NO:20; tested as GFP fusion
PC3 cells [1]; GFP fusion proteins from pEGFP N3, human and mouse
  cell death: cause cell death

## N-terminal region of TRAITS: approximately amino acids 1-113 of TID-1, fused to GFP
PC3 cells [1]
  cells expressing the GFP fusion protein: none of the cells were found to express the N-terminal fusion protein
  role of domain in apoptosis induction: necessary and sufficient for inducing apoptosis

## fTID-1: FLAG tagged TID-1 protein expressed from pCMV-Tag-fTID-1
PC3 cells [4]
  reduction in cell numbers: 2 fold
LNCaP
  recovery of clones expressing fTID-1: no LNCaP clones expressing fTID-1 were found

## 4-hydroxytamoxifen [OHT]
[8]
  apoptotic cells (annexin V): 60.7%

B1: C-terminal region: remaining approximately 147-149 amino acids of TID-1 containing the transactivation domain (protein)
chain: GEGSSKIQCRLEQQQQQMWNPPRTSNLVQHSPSEDKLSPTSLMDDIERELKAEASLMDQMSSCDSSSDSRSSSSSSSEDSSSDSEDDDRSSPSGPRRYSSEHPSVSAGPQYRTSDADTTCNRLYDNSALLMSTLRSDLQLSESDSDSED
[5]; deletion of the N-terminal region
  transactivation relative to full-length (deletion mutagenesis): enhance the transactivation
PC3 cells [1]
  cells expressing the GFP fusion protein: many of the cells expressed the C-terminal fusion protein
  role of domain in apoptosis induction: not required for TRAITS to induce apoptosis
